Assay results taken from US20250275959A1, “COMPOUNDS AND METHODS OF THEIR USE” (LEXICON PHARMACEUTICALS, INC., priority 2024, published 2025).
pIC50: −log10 of the molar value.

Tests used:
hACSL5 [1] = molecular target: T1, hACSL5 (Homo sapiens (Human), UniProt Q9ULC5); assay: Cell-based assay (CBA) with B12FA in hACSL5-transfected Expi293F / FlpIn TRex293 cells; conditions: hACSL5-expressing cells
Procedure, shortened: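 hACSL5-expressing Expi293F or tetracycline-induced FlpIn TRex293 cells, serum- and glucose-starved 1 h, then treated 3 h with serially diluted compound plus 20 µM B12FA. After fixation, 630/520 nm emission ratio (ex 485 nm) gave % inhibition versus no-inhibitor and 10 µM compound/non-induced controls; IC50 by Hill fit.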
Target sequence in this assay (Q9ULC5 whole entry): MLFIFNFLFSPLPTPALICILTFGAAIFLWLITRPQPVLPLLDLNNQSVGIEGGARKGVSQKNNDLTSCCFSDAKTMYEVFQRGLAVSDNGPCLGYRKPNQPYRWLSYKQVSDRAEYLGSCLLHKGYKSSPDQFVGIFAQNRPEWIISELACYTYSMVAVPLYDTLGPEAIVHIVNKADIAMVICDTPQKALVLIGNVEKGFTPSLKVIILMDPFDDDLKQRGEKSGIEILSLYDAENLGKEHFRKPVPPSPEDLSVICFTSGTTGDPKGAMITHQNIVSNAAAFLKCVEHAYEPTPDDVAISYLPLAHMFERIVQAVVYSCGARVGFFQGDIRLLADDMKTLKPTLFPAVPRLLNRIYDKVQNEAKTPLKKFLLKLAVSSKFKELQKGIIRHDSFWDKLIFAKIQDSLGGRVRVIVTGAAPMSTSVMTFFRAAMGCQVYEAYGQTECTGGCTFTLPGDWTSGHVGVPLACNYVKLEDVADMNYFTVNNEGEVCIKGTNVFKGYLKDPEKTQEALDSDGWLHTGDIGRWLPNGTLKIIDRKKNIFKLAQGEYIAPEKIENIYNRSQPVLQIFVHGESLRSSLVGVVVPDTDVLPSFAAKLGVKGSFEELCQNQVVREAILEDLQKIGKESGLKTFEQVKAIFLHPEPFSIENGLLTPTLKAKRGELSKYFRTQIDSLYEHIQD

hACSL5 [2] = molecular target: T1, hACSL5; assay: Human ACSL5 coupled enzyme Amplex Red assay; format: biochemical; conditions: read-out: hACSL5 IC50
Procedure, shortened: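 C-terminally His-tagged ACSL5 (33-683) from sf9 cells, 20 nM, was preincubated with compound in MOPS-NaOH pH 7.6 with MgCl2, peroxidase and acyl-CoA oxidase. Reactions were started with 25 μM oleate, 30 μM CoA, 1 mM ATP and 50 μM Amplex Red; fluorescence (535/590 nm) after 10 minutes at 25° C. was fitted to the Hill equation for IC50 and maximal inhibition.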
Target sequence in this assay (Q9ULC5 33-683): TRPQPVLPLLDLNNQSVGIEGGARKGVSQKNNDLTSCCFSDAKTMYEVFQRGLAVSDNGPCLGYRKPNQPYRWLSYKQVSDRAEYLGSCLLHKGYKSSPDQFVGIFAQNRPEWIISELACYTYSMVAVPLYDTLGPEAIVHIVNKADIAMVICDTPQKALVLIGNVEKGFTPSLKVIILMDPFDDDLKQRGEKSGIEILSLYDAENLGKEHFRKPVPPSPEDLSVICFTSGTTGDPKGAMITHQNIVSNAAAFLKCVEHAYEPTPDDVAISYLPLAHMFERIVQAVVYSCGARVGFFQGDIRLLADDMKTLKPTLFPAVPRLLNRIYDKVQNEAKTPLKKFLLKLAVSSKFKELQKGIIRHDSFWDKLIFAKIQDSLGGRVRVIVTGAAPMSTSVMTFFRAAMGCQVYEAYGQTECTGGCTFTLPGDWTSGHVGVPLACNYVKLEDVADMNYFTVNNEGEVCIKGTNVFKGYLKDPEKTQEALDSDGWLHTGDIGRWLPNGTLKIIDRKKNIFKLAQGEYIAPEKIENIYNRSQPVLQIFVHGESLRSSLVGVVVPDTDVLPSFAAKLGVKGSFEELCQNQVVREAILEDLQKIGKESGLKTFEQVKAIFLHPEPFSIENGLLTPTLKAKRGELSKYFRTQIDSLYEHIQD

pIC50 (hACSL5 [1])	pIC50 (hACSL5 [2])	Compound
> 7.00	> 7.00	CC[C@@H](Oc1ccc(C(=O)NS(=O)(=O)c2ccc(OCCNC3CC3)cc2)c(F)c1F)c1ccc(OCC2CC2)cn1 [(R)-N-((4-(2-(cyclopropylamino)ethoxy)phenyl)sulfonyl)-4-(1-(5-(cyclopropylmethoxy)pyridin-2-yl)propoxy)-2,3-difluorobenzamide]
6.30 to 7.00	> 7.00	CC[C@@H](Oc1ccc(C(=O)NS(=O)(=O)c2ccc(OCCN(C)C)cc2)c(F)c1F)c1cc(Oc2ccccn2)ccn1 [(R)-N-((4-(2-(dimethylamino)ethoxy)phenyl)sulfonyl)-2,3-difluoro-4-(1-(4-(pyridin-2-yloxy)pyridin-2-yl)propoxy)benzamide]
< 6.30	6.30 to 7.00	CC[C@@H](Oc1ccc(C(=O)NS(=O)(=O)c2ccc(OCCN(C)C)cc2)c(F)c1F)c1ccc(OCCOC)cn1 [(R)-N-((4-(2-(dimethylamino)ethoxy)phenyl)sulfonyl)-2,3-difluoro-4-(1-(5-(2-methoxyethoxy)pyridin-2-yl)propoxy)benzamide]
6.30 to 7.00	> 7.00	C[C@@H](Oc1ccc(C(=O)NS(=O)(=O)c2ccc(OCCN(C)C)cc2)c(F)c1F)c1ccc(Oc2ccccn2)cn1 [(R)-N-((4-(2-(dimethylamino)ethoxy)phenyl)sulfonyl)-2,3-difluoro-4-(1-(5-(pyridin-2-yloxy)pyridin-2-yl)ethoxy)benzamide]
6.30 to 7.00	> 7.00	CC[C@@H](Oc1ccc(C(=O)NS(=O)(=O)c2ccc(OCCN(C)C)cc2)c(F)c1F)c1ccc(Oc2ccccn2)cn1 [(R)-N-((4-(2-(dimethylamino)ethoxy)phenyl)sulfonyl)-2,3-difluoro-4-(1-(5-(pyridin-2-yloxy)pyridin-2-yl)propoxy)benzamide]
> 7.00	> 7.00	C[C@@H](Oc1ccc(C(=O)NS(=O)(=O)c2ccc(OCCN(C)C)cc2)cc1C(F)(F)F)c1ccc(Oc2ccccn2)cn1 [(R)-N-((4-(2-(dimethylamino)ethoxy)phenyl)sulfonyl)-4-(1-(5-(pyridin-2-yloxy)pyridin-2-yl)ethoxy)-3-(trifluoromethyl)benzamide]
> 7.00	> 7.00	CC[C@@H](Oc1ccc(C(=O)NS(=O)(=O)c2ccc(OCCN(C)C)cc2)cc1C(F)(F)F)c1ccc(Oc2ccccn2)cn1 [(R)-N-((4-(2-(dimethylamino)ethoxy)phenyl)sulfonyl)-4-(1-(5-(pyridin-2-yloxy)pyridin-2-yl)propoxy)-3-(trifluoromethyl)benzamide]
6.30 to 7.00	> 7.00	CC[C@@H](Oc1ccc(C(=O)NS(=O)(=O)c2ccc(OC34CCN(CC3)C4)cc2)c(F)c1F)c1ccc(OCC2CC2)cn1 [(R)-N-((4-((1-azabicyclo[2.2.1]heptan-4-yl)oxy)phenyl)sulfonyl)-4-(1-(5-(cyclopropylmethoxy)pyridin-2-yl)propoxy)-2,3-difluorobenzamide]
> 7.00	> 7.00	C[C@@H](Oc1ccc(C(=O)NS(=O)(=O)N2CCC(OC3CCN(C)CC3)CC2)cc1C(F)(F)F)c1ccc(Oc2ccccn2)cn1 [(R)-N-((4-((1-methylpiperidin-4-yl)oxy)piperidin-1-yl)sulfonyl)-4-(1-(5-(pyridin-2-yloxy)pyridin-2-yl)ethoxy)-3-(trifluoromethyl)benzamide]
> 7.00	> 7.00	CC[C@@H](Oc1ccc(C(=O)NS(=O)(=O)N2CCC(OC3CCN(C)CC3)CC2)cc1C(F)(F)F)c1ccc(Oc2ccccn2)cn1 [(R)-N-((4-((1-methylpiperidin-4-yl)oxy)piperidin-1-yl)sulfonyl)-4-(1-(5-(pyridin-2-yloxy)pyridin-2-yl)propoxy)-3-(trifluoromethyl)benzamide]
< 6.30	> 7.00	CC[C@@H](Oc1ccc(C(=O)NS(=O)(=O)c2ccc(OCc3c[nH]cn3)cc2)c(F)c1F)c1ccc(OCCOC)cn1 [(R)-N-((4-((1H-imidazol-4-yl)methoxy)phenyl)sulfonyl)-2,3-difluoro-4-(1-(5-(2-methoxyethoxy)pyridin-2-yl)propoxy)benzamide]
> 7.00	> 7.00	CC[C@@H](Oc1ccc(C(=O)NS(=O)(=O)N2CCN(CC3CC3)CC2)c(F)c1F)c1ccc(Oc2ccccn2)cn1 [(R)-N-((4-(cyclopropylmethyl)piperazin-1-yl)sulfonyl)-2,3-difluoro-4-(1-(5-(pyridin-2-yloxy)pyridin-2-yl)propoxy)benzamide]
> 7.00	> 7.00	CC[C@@H](Oc1ccc(C(=O)NS(=O)(=O)N2CCN(C3CCC3)CC2)c(F)c1F)c1ccc(Oc2ccccn2)cn1 [(R)-N-((4-cyclobutylpiperazin-1-yl)sulfonyl)-2,3-difluoro-4-(1-(5-(pyridin-2-yloxy)pyridin-2-yl)propoxy)benzamide]
> 7.00	> 7.00	CC[C@@H](Oc1ccc(C(=O)NS(=O)(=O)N2CCN(C3CCC3)CC2)c(F)c1F)c1ccc(OCC2CC2)cn1 [(R)-N-((4-cyclobutylpiperazin-1-yl)sulfonyl)-4-(1-(5-(cyclopropylmethoxy)pyridin-2-yl)propoxy)-2,3-difluorobenzamide]
6.30 to 7.00	> 7.00	CC[C@@H](Oc1ccc(C(=O)NS(=O)(=O)N2CCN(C3CCCCC3)CC2)c(F)c1F)c1ccc(Oc2ccccn2)cn1 [(R)-N-((4-cyclohexylpiperazin-1-yl)sulfonyl)-2,3-difluoro-4-(1-(5-(pyridin-2-yloxy)pyridin-2-yl)propoxy)benzamide]
< 6.30	> 7.00	CC[C@@H](Oc1ccc(C(=O)NS(=O)(=O)N2CCN(C3CCCCC3)CC2)c(F)c1F)c1ccc(OCC2CC2)cn1 [(R)-N-((4-cyclohexylpiperazin-1-yl)sulfonyl)-4-(1-(5-(cyclopropylmethoxy)pyridin-2-yl)propoxy)-2,3-difluorobenzamide]
6.30 to 7.00	> 7.00	CC[C@@H](Oc1ccc(C(=O)NS(=O)(=O)N2CCN(C3CCCC3)CC2)c(F)c1F)c1ccc(Oc2ccccn2)cn1 [(R)-N-((4-cyclopentylpiperazin-1-yl)sulfonyl)-2,3-difluoro-4-(1-(5-(pyridin-2-yloxy)pyridin-2-yl)propoxy)benzamide]
6.30 to 7.00	> 7.00	CC[C@@H](Oc1ccc(C(=O)NS(=O)(=O)N2CCN(C3CCCC3)CC2)c(F)c1F)c1ccc(OCC2CC2)cn1 [(R)-N-((4-cyclopentylpiperazin-1-yl)sulfonyl)-4-(1-(5-(cyclopropylmethoxy)pyridin-2-yl)propoxy)-2,3-difluorobenzamide]
6.30 to 7.00	> 7.00	CC[C@@H](Oc1ccc(C(=O)NS(=O)(=O)N2CCN(C3CC3)CC2)c(F)c1F)c1cc(Oc2ccccn2)ccn1 [(R)-N-((4-cyclopropylpiperazin-1-yl)sulfonyl)-2,3-difluoro-4-(1-(4-(pyridin-2-yloxy)pyridin-2-yl)propoxy)benzamide]
> 7.00	> 7.00	CC[C@@H](Oc1ccc(C(=O)NS(=O)(=O)N2CCN(C3CC3)CC2)c(F)c1F)c1ccc(Oc2ccccn2)cn1 [(R)-N-((4-cyclopropylpiperazin-1-yl)sulfonyl)-2,3-difluoro-4-(1-(5-(pyridin-2-yloxy)pyridin-2-yl)propoxy)benzamide]
> 7.00	> 7.00	CC[C@@H](Oc1ccc(C(=O)NS(=O)(=O)N2CCN(CC)CC2)c(F)c1F)c1ccc(Oc2ccccn2)cn1 [(R)-N-((4-ethylpiperazin-1-yl)sulfonyl)-2,3-difluoro-4-(1-(5-(pyridin-2-yloxy)pyridin-2-yl)propoxy)benzamide]
